Key:
[1] = molar heat capacity at constant pressure; settings: 101.33 kPa, Crystal
[2] = Crystal; visual observation

NC[C@H]1CC[C@H](C(=O)O)CC1 [trans-4-(aminomethyl)cyclohexanecarboxylic acid]
[1]
Settings	molar heat capacity at constant pressure [J/K/mol]
82.12 K	74.7
86.25 K	76.89
90.28 K	79.76
94.31 K	82.4
98.35 K	85
102.41 K	87.81
106.49 K	90.49
110.6 K	93.05
114.62 K	95.54
118.68 K	98.24
122.78 K	100.67
126.81 K	103.29
130.9 K	105.64
135.04 K	107.88
139.12 K	109.84
143.27 K	111.62
147.47 K	113.47
151.62 K	115.25
155.73 K	116.97
159.91 K	118.97
164.15 K	120.5
168.36 K	122.02
172.53 K	123.18
176.78 K	124.4
181.09 K	125.84
185.38 K	127.19
189.63 K	128.43
193.83 K	129.9
198.09 K	130.84
202.43 K	132.24
206.76 K	133.38
211.06 K	134.92
215.33 K	136.11
219.57 K	138
223.88 K	139.22
228.26 K	141.19
232.59 K	143.17
236.84 K	145.38
240.99 K	147.84
245.16 K	149.97
249.36 K	153.29
253.5 K	156.23
257.64 K	159.56
261.72 K	162.66
265.9 K	166
270.14 K	168.94
274.32 K	172.81
278.44 K	176.02
282.51 K	180.3
286.62 K	184.12
290.75 K	187.46
294.85 K	190.4
298.94 K	194.15
303.01 K	197.05
307.17 K	200.02
311.37 K	202.88
315.53 K	205.54
319.67 K	209.32
323.79 K	212.66
327.88 K	215.68
331.96 K	219.46
336.09 K	222.93
340.27 K	226.39
344.44 K	229.61
348.6 K	233.13
352.73 K	236.69
356.85 K	239.65
360.96 K	242.26
365.13 K	245.3
369.37 K	248.57
373.63 K	252.41
377.94 K	254.98

Settings	Normal melting temperature [°C]
[2]	249.00
